Laboratory results published in ChEMBL document CHEMBL5104095, “Proteolysis targeting chimera (PROTAC) in drug discovery paradigm: Recent progress and future challenges” (Eur J Med Chem, 2021).

Experiments:
[1] = target: T1, Protein cereblon/Bcl-2-like protein 1 (Homo sapiens, UniProt Q07817+Q96SW2); assay: PROTAC activity at CRBN/BCL-XL in human WI-38 cells assessed as induction of BCL-XL degradation incubated for 16 hrs by Western blot analysis; format: cell-based
Target sequence in this assay (Q07817 whole entry): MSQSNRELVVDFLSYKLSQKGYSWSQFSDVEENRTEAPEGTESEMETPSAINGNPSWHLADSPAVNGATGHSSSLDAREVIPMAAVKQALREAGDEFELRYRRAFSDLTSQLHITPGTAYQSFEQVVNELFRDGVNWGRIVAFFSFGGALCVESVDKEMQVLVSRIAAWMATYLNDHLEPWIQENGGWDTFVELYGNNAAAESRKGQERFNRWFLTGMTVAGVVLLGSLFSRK
Target sequence in this assay (Q96SW2 whole entry): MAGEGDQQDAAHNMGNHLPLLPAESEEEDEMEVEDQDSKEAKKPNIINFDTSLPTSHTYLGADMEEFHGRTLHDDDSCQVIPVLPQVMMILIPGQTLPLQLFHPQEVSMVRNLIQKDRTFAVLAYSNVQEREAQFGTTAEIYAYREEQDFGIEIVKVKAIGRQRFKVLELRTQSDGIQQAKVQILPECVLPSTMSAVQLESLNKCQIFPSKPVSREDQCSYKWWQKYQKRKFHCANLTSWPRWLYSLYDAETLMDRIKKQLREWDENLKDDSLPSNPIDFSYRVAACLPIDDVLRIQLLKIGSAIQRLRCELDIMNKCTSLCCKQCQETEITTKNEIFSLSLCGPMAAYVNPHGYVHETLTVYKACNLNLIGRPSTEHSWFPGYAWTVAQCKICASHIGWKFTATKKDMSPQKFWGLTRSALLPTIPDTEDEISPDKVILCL

[2] = target: T1, Protein cereblon/Bcl-2-like protein 1; assay: PROTAC activity at CRBN/BCL-XL in human WI-38 cells assessed as induction of BCL-XL degradation incubated for 16 hrs by Western blot analysis relative to control; format: cell-based
Target sequence in this assay (Q07817 whole entry, looked up): as the sequence (Q07817 whole entry) above
Target sequence in this assay (Q96SW2 whole entry, looked up): as the sequence (Q96SW2 whole entry) above

CC1(C)CCC(c2ccccc2)=C(CN2CCN(c3ccc(C(=O)NS(=O)(=O)c4ccc(N[C@H](CCN5CCN(C(=O)CCCn6cc(COCCOCCNc7cccc8c7C(=O)N(C7CCC(=O)NC7=O)C8=O)nn6)CC5)CSc5ccccc5)c(S(=O)(=O)C(F)(F)F)c4)cc3)CC2)C1 (some centres not stated)
EC50 [1]: 0.046 µM | Emax [2]: 96.2%
